Source: patent US5066658A, “Substituted hydroxyureas” (Ortho Pharmaceutical Corporation, priority 1990, dated 1991)
pIC50: −log10 of the molar value.

system: Arachidonate-Induced Bronchospasm (lipoxygenase); test: Pulmonary Mechanics Assay: arachidonate-induced bronchospasm with indomethacin (SRS-A response, indicative of lipoxygenase inhibition); type: in vivo, male Hartley guinea pigs; conditions: Cavia porcellus, ID dosing, 50 mg/kg, guinea pig, read-out: Inhibition of Arachidonate-Induced Bronchospasm (ID Dosing), % Inh. with Indomethacin
Method: (§1) The bronchodilating activity of the compounds was tested in a pulmonary mechanics assay. Basically, male Hartley guinea pigs (about 400-500 g) were anesthetized with urethane (2 g/kg, i.p.) and placed in a whole body Plethysmograph. Cannulations of a jugular vein and carotid artery were performed for compound administration and monitoring blood pressure, respectively. The trachea was cannulated for respiration at a constate volume via a miniature starling pump. A Validyne differential pressure transducer (±20 cm H2 O) sensed transpleural pressure via a 15 gauge needle inserted into the pleural cavity and a sidearm from the tracheal cannula. Tidal volume was sensed by another Validyne differential pressure transducer (±2 cm H2 O) from pressure changes inside the plethysmograph. An on-line Buxco pulmonary mechanics computer calculated air flow, dynamic lung compliance and lung resistance. The values were recorded on a print-out.
(§2) The guinea pigs were pretreated with succinyl choline (1.2 mg/kg, i.v.) to arrest spontaneous respiration. A control challenge of arachidonic acid (0.5-1.0 mg/kg, i.v.) was administered, and the animals were then dosed with the test compound by various routes. At least 10 minutes were allowed to expire between arachidonic acid challenges. A second challenge was given and compared to the control response. This comparison was indicative of cyclooxygenase inhibition. Indomethacin (10 mg/kg, i.v.) was administered immediately after the second challenge. A third challenge of a higher dose of arachidonic acid (5-10 mg/kg, i.v.) was given. This response was induced by SRS-A and compared to the responses elicited by a separate control group of animals. Activity was indicative of lipoxygenase inhibition. Propranolol (0.005 mg/kg. i.v.) may be given prior to the third challenge to enhance the response to SRS-A.
(§3) Bronchoconstriction induced by arachidonic acid with or without indomethacin was expressed as maximum percent change in dynamic lung compliance (Cdyn) and maximum percent increase in lung resistance (RL). Each guinea pig served as its own control for cyclooxygenase evaluation. The results are shown in Table I and are expressed as the percent inhibition of control.

Row | SMILES | inhibition in vivo at 50 mg/kg [%]
1 | COc1ccc(CCNC(=O)NO)cc1OC [Example 72, N-[2-(3,4-Dimethoxyphenyl)ethyl]-N'-hydroxyurea] | 56

same assay, conditions: Cavia porcellus, IV dosing, 15 mg/kg, guinea pig, read-out: Inhibition of Arachidonate-Induced Bronchospasm (IV Dosing), % Inh. with Indomethacin

Row | SMILES | inhibition in vivo at 15 mg/kg [%]
2 | COc1ccc(CCNC(=O)N(C)O)c(OC)c1 [Example 49, N-[2-(2,4-Dimethoxyphenyl)ethyl]-N'-hydroxy-N'-methylurea] | 67
3 | COc1cc2c(cc1OC)C(CNC(=O)N(C)O)CC2 (centres unmarked) [Example 60, N-[(5,6-Dimethoxyindan-1-yl)methyl]-N'-hydroxy-N'-methylurea] | 67
4 | COc1cc2c(cc1OC)CC(NC(=O)N(C)O)CC2 (centres unmarked) [Example 61, N-(6,7-Dimethoxy-1,2,3,4-tetrahydro-2-naphthyl)-N'-hydroxy-N'-methylurea] | < 20

target: T1, 5-lipoxygenase (Rattus norvegicus, UniProt P12527); test: Inhibition of 5-lipoxygenase in cell-free homogenate of rat basophilic leukemia (RBL-1) cells; type: biochemical; conditions: 3 μM; RBL-1 cell-free homogenate; read-out: Inhibition of 5-Lipoxygenase, % Inh. @ 3 μM
T1 construct: The cell-free homogenate was prepared by sonication of the cells followed by centrifugation at 40,000 xg; endogenous in cells; host or cells: RBL-1 (rat basophilic leukemia) cells, 40,000 xg supernatant of the sonicate
T1 sequence (P12527 1-673): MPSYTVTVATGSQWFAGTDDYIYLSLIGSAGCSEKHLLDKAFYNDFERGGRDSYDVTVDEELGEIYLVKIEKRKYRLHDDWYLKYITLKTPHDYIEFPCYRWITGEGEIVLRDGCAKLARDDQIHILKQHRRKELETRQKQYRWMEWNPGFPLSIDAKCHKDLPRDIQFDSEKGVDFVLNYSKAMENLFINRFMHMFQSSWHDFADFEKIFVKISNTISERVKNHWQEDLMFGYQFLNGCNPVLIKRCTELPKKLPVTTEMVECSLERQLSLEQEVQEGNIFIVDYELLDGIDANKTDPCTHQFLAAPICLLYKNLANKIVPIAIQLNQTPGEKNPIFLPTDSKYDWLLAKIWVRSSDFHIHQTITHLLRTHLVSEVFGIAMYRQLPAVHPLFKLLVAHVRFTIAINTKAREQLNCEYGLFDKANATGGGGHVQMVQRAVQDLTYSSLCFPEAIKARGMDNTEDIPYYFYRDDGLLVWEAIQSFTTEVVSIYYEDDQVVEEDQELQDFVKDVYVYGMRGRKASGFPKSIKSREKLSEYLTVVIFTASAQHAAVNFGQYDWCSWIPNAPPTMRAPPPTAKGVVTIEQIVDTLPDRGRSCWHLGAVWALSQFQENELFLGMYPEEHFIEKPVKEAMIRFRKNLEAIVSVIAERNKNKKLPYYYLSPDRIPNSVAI
Method: The inhibition of 5-lipoxygenase was tested in a cell-free homogenate by the procedure of B. Jakschik et al., Biochem.Biophys.Res.Comm. 95, 103 (1980). Basically, rat basophilic leukemia cells (RBL-1 cells) were maintained in culture in a suitable medium, and were collected by centrifugation prior to assay. The cell-free homogenate was prepared by sonication of the cells followed by centrifugation at 40,000 xg. The CaCl2 dependent production of lipoxygenase products from ^14 C-arachidonic acid in the 40,000 xg supernatant was monitored in the presence of buffer (or other vehicle) or drug. Products were isolated by acidification and extraction, followed by thin layer chromatography. Radioactive areas corresponding to the authentic lipoxygenase products were quantitated by liquid scintillation counting. Data was reported as the IC50, the concentration causing 50% inhibition of the generation of lipoxygenase products. The results are shown it Table I as the percent inhibition at 3 μM or the amount of compound necessary to cause 50% inhibition.

Row | inhibition at 3 µM [%] | SMILES
5 | 100 | CCCCCCCCCCN(O)C(=O)NCC(=O)OCC [Example 3, N-(Ethoxycarbonyl)methyl-N'-decyl-N'-hydroxyurea]
6 | 93 | CCCCCCCCCN(O)C(=O)N(C)C [Example 8, N,N-Dimethyl-N'-nonyl-N'-hydroxyurea]
7 | 64 | CCCCCCCN(O)C(=O)N(C)C [Example 9, N,N-Dimethyl-N'-heptyl-N'-hydroxyurea]
8 | 65 | CCCCCCCCCC(C)(C)NC(=O)N(C)O [Example 20, N-(1,1-Dimethyldecyl)-N'-methyl-N'-hydroxyurea]
9 | 99 | COc1ccc(CCNC(=O)N(C)O)c(OC)c1 [Example 49, N-[2-(2,4-Dimethoxyphenyl)ethyl]-N'-hydroxy-N'-methylurea]
10 | 51 | COc1cc2c(cc1OC)C(CNC(=O)N(C)O)CC2 (centres unmarked) [Example 60, N-[(5,6-Dimethoxyindan-1-yl)methyl]-N'-hydroxy-N'-methylurea]
11 | 73 | COc1cc2c(cc1OC)CC(NC(=O)N(C)O)CC2 (centres unmarked) [Example 61, N-(6,7-Dimethoxy-1,2,3,4-tetrahydro-2-naphthyl)-N'-hydroxy-N'-methylurea]
12 | 21 | COc1ccc(CCNC(=O)NO)cc1OC [Example 72, N-[2-(3,4-Dimethoxyphenyl)ethyl]-N'-hydroxyurea]

same assay, conditions: RBL-1 cell-free homogenate

Row | pIC50 | SMILES
13 | 5.28 | CCCCCCCCN1CCN(O)C1=O [Example 24, 1-Octyl-3-hydroxyimidazolidin-2-one]
14 | 6.15 | CCCCCCCCCCN1CCCN(O)C1=O [Example 26, 1-Decyl-3-hydroxy-3,4,5,6-tetrahydro-lH-pyrimidin-2-one]
15 | 5.85 | CCCCCCCCCCN1C(=O)N(O)CC1C(=O)OCC (centres unmarked) [Example 27, Ethyl 3-decyl-1-hydroxyimidazolidin-2-one-4-carboxylate]

system: Arachidonate-Induced Bronchospasm (cyclooxygenase); test: Pulmonary Mechanics Assay: arachidonate-induced bronchospasm without indomethacin (indicative of cyclooxygenase inhibition); type: in vivo, male Hartley guinea pigs; conditions: Cavia porcellus, ID dosing, 50 mg/kg, guinea pig, read-out: Inhibition of Arachidonate-Induced Bronchospasm (ID Dosing), % Inh. without Indomethacin
Method: as §1, §2, §3

Row | SMILES | inhibition in vivo at 50 mg/kg [%]
16 | COc1ccc(CCNC(=O)NO)cc1OC [Example 72, N-[2-(3,4-Dimethoxyphenyl)ethyl]-N'-hydroxyurea] | 50

same assay, conditions: Cavia porcellus, IV dosing, 15 mg/kg, guinea pig, read-out: Inhibition of Arachidonate-Induced Bronchospasm (IV Dosing), % Inh. without Indomethacin

Row | SMILES | inhibition in vivo at 15 mg/kg [%]
17 | COc1ccc(CCNC(=O)N(C)O)c(OC)c1 [Example 49, N-[2-(2,4-Dimethoxyphenyl)ethyl]-N'-hydroxy-N'-methylurea] | 39
18 | COc1cc2c(cc1OC)C(CNC(=O)N(C)O)CC2 (centres unmarked) [Example 60, N-[(5,6-Dimethoxyindan-1-yl)methyl]-N'-hydroxy-N'-methylurea] | 48
19 | COc1cc2c(cc1OC)CC(NC(=O)N(C)O)CC2 (centres unmarked) [Example 61, N-(6,7-Dimethoxy-1,2,3,4-tetrahydro-2-naphthyl)-N'-hydroxy-N'-methylurea] | < 20

system: Arachidonate-Induced Ear Edema; test: Arachidonic Acid-Induced Ear Edema Assay; type: in vivo; conditions: topical, mouse ear
Method: The topical anti-inflammatory activity of a compound was determined by its ability to inhibit an experimentally-induced inflammation in the mouse ear. Basically, four milligrams of arachidonic acid in acetone were applied to the dorsal surface of one ear with a microliter pipette. The mice were sacrificed at various times after application of arachidonic acid (one-half to six hours). A section of each ear was removed with a 7 mm round punch and weighed on an electronic or analytical balance. The difference in weight between treated and untreated ears was determined. Compounds to be evaluated for anti-inflammatory activity can be incorporated directly into the irritant mixture or at various times prior to or after application of arachidonic acid.
The degree of anti-inflammatory activity is shown in Table I, and is expressed in terms of the percent inhibition of ear weight increase.

Row | SMILES | Inhibition of Arachidonate-Induced Ear Edema, ED50 [µg]
20 | CCCCCCCN(O)C(=O)N(C)C [Example 9, N,N-Dimethyl-N'-heptyl-N'-hydroxyurea] | 55

same assay, conditions: topical; 100 μg topically, mouse ear; read-out: Inhibition of Arachidonate-Induced Ear Edema, % Inh. (μg topically)

Row | SMILES | inhibition in vivo at 0.1 mg [%]
21 | CCCCCCCCCC(C)(C)NC(=O)N(C)O [Example 20, N-(1,1-Dimethyldecyl)-N'-methyl-N'-hydroxyurea] | 47

same assay, conditions: topical; 200 μg topically, mouse ear; read-out: Inhibition of Arachidonate-Induced Ear Edema, % Inh. (μg topically)

Row | SMILES | inhibition in vivo at 0.2 mg [%]
22 | CCCCCCCCCN(O)C(=O)N(C)C [Example 8, N,N-Dimethyl-N'-nonyl-N'-hydroxyurea] | 95
23 | CCCCCCCCN1CCN(O)C1=O [Example 24, 1-Octyl-3-hydroxyimidazolidin-2-one] | 27

same assay, conditions: topical; 400 μg topically, mouse ear; read-out: Inhibition of Arachidonate-Induced Ear Edema, % Inh. (μg topically)

Row | SMILES | inhibition in vivo at 0.4 mg [%]
24 | CCCCCCCCCCN(O)C(=O)NCC(=O)OCC [Example 3, N-(Ethoxycarbonyl)methyl-N'-decyl-N'-hydroxyurea] | 51
25 | CCCCCCCCCCN1CCCN(O)C1=O [Example 26, 1-Decyl-3-hydroxy-3,4,5,6-tetrahydro-lH-pyrimidin-2-one] | 30
26 | CCCCCCCCCCN1C(=O)N(O)CC1C(=O)OCC (centres unmarked) [Example 27, Ethyl 3-decyl-1-hydroxyimidazolidin-2-one-4-carboxylate] | 13
